For one experiment, the system named is STAT1. The experiment is described as follows: STAT1 reporter gene assay (luciferase), U2OS stable cell line pGL4-STAT1-TA-luc, IFN-γ stimulation. Conditions: Homo sapiens, IFN-γ 50 ng/mL, 8 hours, read-out: IC50 (μM) pSTAT1. It counts as cell-based, human. On the procedure: 1-2) Experiment on the Inhibition of STAT1 Activity
A human osteosarcoma cell line (U2OS stable cell line; pGL4-STAT1-TA-luc), which contains a stably operating STAT1 promoter, was cultured in McCoy 5′A medium (Cat No. 16600, Life Technologies) containing 10% FBS (Cat No. SH30396, Thermo Scientific) and 1000 μg/mL G418 solution (Cat No. 04 727 894 001, Roche). The reporter gene assay using U2OS stable cell line was performed in McCoy 5′A medium containing 10% FBS without G-418 solution. U2OS stable cells were plated in two (2) white 96-well plates with 25,000 cells/50 pt in each well. The cells were cultured at 37° C., under 5% CO2 for 24 hours, and then treated with the compounds listed in Examples which were diluted in various concentrations. Subsequently, IFN-γ was added to each well with a final concentration of 50 ng/mL. Upon completion of the treatment with the compounds and IFN-γ, the cells were cultured at 37° C., under 5% CO2 for 8 hours. The plates were observed under microscope and drug precipitation and particular findings were investigated and recorded.
(§1) The luciferase assay and the cell viability assay were performed respectively with one of two plates. For the luciferase assay, the liquid media in the 96-well plate was removed, and then, 20 μL of passive cell lysis buffer was added to each well. After shaking the plate for 30 minutes, luciferase activities of each well were measured in a PHERAstar™ microplate reader (BMG LABTECH) using a luciferase assay system (Cat No. E1501, Promega). For the cell viability assay, the 96-well plate was placed at room temperature for 30 minutes, added with 20 μL/well of CellTiter-Glo solution (Cat No. G7573, Promega), and shaken for 10 minutes in order to measure cytotoxicity caused by the compounds listed in Examples with a PHERAstar™ microplate reader (BMG LABTECH). Wells without 0.1% DMSO and stimulation were used as a negative control and wells with 0.1% DMSO and stimulation were used as a positive control.
(§2) The results of evaluation on the inhibitory effect of the compounds listed in the Examples on the dimerization of STAT3 and STAT1 obtained via the STAT3 and STAT1 reporter gene assays are shown in Table 9 below.

In the next experiment the test system is STAT3. The experiment is described as follows: STAT3 reporter gene assay (luciferase), LNCaP stable cell line pSTAT3-TA-luc, IL-6 stimulation. It counts as cell-based, human. Conditions: Homo sapiens. The method, then: 1-1) Experiment on the Inhibition of STAT3 Activity
A human prostate cancer cell line (LNCaP stable cell line; plasmid pSTAT3-TA-luc), which contains a stably operating STAT3 promoter, was cultured in RPMI1640 medium (Cat No. 11875, Life Technologies) containing 10% fetal bovine serum (FBS) (Cat No. SH30396, Thermo Scientific) and 150 μg/mL G-418 solution (Cat No. 04 727 894 001, Roche). The reporter gene assay using LNCaP stable cell line was performed in RPMI1640 medium containing 3% DCC-FBS without G-418 solution. LNCaP stable cells were plated in two (2) white 96-well plates with 30,000 cells/50 μL in each well. The cells were cultured at 37° C., under 5% CO2 for 24 hours, and then treated with the compounds listed in Examples which were diluted in various concentrations. Subsequently, IL-6 was added to each well with a final concentration of 10 ng/mL. Upon completion of the treatment with the compounds and IL-6, the cells were cultured at 37° C., under 5% CO2 for 24 hours. The plates were observed under microscope and drug precipitation and particular findings were investigated and recorded.
as §1, with “one of the two plates.” for “one of two plates.”, “then, 20 μL, of passive” for “then, 20 μL of passive”
as §2

Take `CCOc1cc(OC(F)(F)F)cc(C(C)(C)c2cc(Cl)cc(NC(=O)c3cc4cc(C(C)(C)S(C)(=O)=O)ccc4s3)c2)c1` [Example 1, N-(3-chloro-5-(2-(3-ethoxy-5-(trifluoromethoxy)phenyl)propan-2-yl)phenyl)-5-(2-(methylsulfonyl)propan-2-yl)benzo[b]thiophene-2-carboxamide]: the IC50 in the experiment on STAT1 was more than 50 µM; in the experiment on STAT3 it was 0.0076 µM.
For `CCCOc1cc(OC(F)(F)F)cc(C(C)(C)c2cc(Cl)cc(NC(=O)c3cc4cc(C(C)(C)S(C)(=O)=O)ccc4s3)c2)c1` [Example 2, N-(3-chloro-5-(2-(3-propoxy-5-(trifluoromethoxy)phenyl)propan-2-yl)phenyl)-5-(2-(methylsulfonyl)propan-2-yl)benzo[b]thiophene-2-carboxamide], in that order: more than 50 µM and 0.008 µM.
Turning to `COc1cc(OC(F)(F)F)cc(C(C)(C)c2cccc(NC(=O)c3cc4cc(C(C)(C)S(C)(=O)=O)ccc4s3)c2)c1` [Example 3, N-(3-(2-(3-methoxy-5-(trifluoromethoxy)phenyl)propan-2-yl)phenyl)-5-(2-(methylsulfonyl)propan-2-yl)benzo[b]thiophene-2-carboxamide], the 50% inhibitory concentration (IC50) is more than 50 µM in the experiment on STAT1 and 0.0098 µM with STAT3.
For `CC(C)(c1cc(Br)cc(NC(=O)c2cc3cc(C(C)(C)S(C)(=O)=O)ccc3s2)c1)c1cc(OC(F)(F)F)cc(OC(F)(F)C(F)F)c1` [Example 4, N-(3-bromo-5-(2-(3-(1,1,2,2-tetrafluoroethoxy)-5-(trifluoromethoxy)phenyl)propan-2-yl)phenyl)-5-(2-(methylsulfonyl)propan-2-yl)benzo[b]thiophene-2-carboxamide], in that order: more than 50 µM and 0.0091 µM.
`CC(C)(c1cc(Cl)cc(NC(=O)c2cc3cc(C(C)(C)S(C)(=O)=O)ccc3s2)c1)c1cc(OC(F)(F)F)cc(OC(F)(F)C(F)F)c1` [Example 5, N-(3-chloro-5-(2-(3-(1,1,2,2-tetrafluoroethoxy)-5-(trifluoromethoxy)phenyl)propan-2-yl)phenyl)-5-(2-(methylsulfonyl)propan-2-yl)benzo[b]thiophene-2-carboxamide]: the IC50 is more than 50 µM in the experiment with STAT1 and 0.028 µM in the experiment on STAT3.
For `COc1cc(NC(=O)c2cc3cc(C(C)(C)S(C)(=O)=O)ccc3s2)cc(C(C)(C)c2cc(OC)cc(OC(F)(F)F)c2)c1` [Example 6, N-(3-methoxy-5-(2-(3-methoxy-5-(trifluoromethoxy)phenyl)propan-2-yl)phenyl)-5-(2-(methylsulfonyl)propan-2-yl)benzo[b]thiophene-2-carboxamide], in that order: more than 50 µM and 0.019 µM.
The corresponding values for `COc1cc(OC(F)(F)F)cc(C(C)(C)c2cc(Cl)cc(NC(=O)c3cc4cc(C(C)(C)S(C)(=O)=O)ccc4s3)c2)c1` [Example 7, N-(3-chloro-5-(2-(3-methoxy-5-(trifluoromethoxy)phenyl)propan-2-yl)phenyl)-5-(2-(methylsulfonyl)propan-2-yl)benzo[b]thiophene-2-carboxamide] are more than 50 µM and 0.0088 µM.
For `CC(C)(c1cc(Cl)cc(NC(=O)c2cc3cc(C(C)(C)S(C)(=O)=O)ccc3s2)c1)c1cc(OCCN2CCOCC2)cc(OC(F)(F)F)c1` [Example 8, N-(3-chloro-5-(2-(3-(2-morpholinoethoxy)-5-(trifluoromethoxy)phenyl)propan-2-yl)phenyl)-5-(2-(methylsulfonyl)propan-2-yl)benzo[b]thiophene-2-carboxamide], in that order: more than 50 µM and 0.061 µM.
Take `CC(C)(c1ccc(F)cc1)c1cc(Br)cc(NC(=O)c2cc3cc(C(C)(C)S(C)(=O)=O)ccc3s2)c1` [Example 20, N-(3-bromo-5-(2-(4-fluorophenyl)propan-2-yl)phenyl)-5-(2-(methylsulfonyl)propan-2-yl)benzo[b]thiophene-2-carboxamide]: the IC50 in the experiment on STAT1 was more than 50 µM; in the experiment on STAT3, 0.067 µM.
The corresponding values for `CC(C)(c1ccc(Cl)cc1)c1cc(Cl)cc(NC(=O)c2cc3cc(C(C)(C)S(C)(=O)=O)ncc3s2)c1` [Example 26, N-(3-chloro-5-(2-(4-chlorophenyl)propan-2-yl)phenyl)-5-(2-(methylsulfonyl)propan-2-yl)thieno[2,3-c]pyridine-2-carboxamide] are more than 50 µM and 0.065 µM.
For `CC(C)c1ccc(C(C)(C)c2cc(Cl)cc(NC(=O)c3cc4cc(C(C)(C)S(C)(=O)=O)ccc4s3)c2)s1` [Example 28, N-(3-chloro-5-(2-(5-isopropylthiophen-2-yl)propan-2-yl)phenyl)-5-(2-(methylsulfonyl)propan-2-yl)benzo[b]thiophene-2-carboxamide], in that order: more than 50 µM and 0.0085 µM.
In the case of `COc1ccc(C(C)(C)c2cc(Cl)cc(NC(=O)c3cc4cc(C(C)(C)S(C)(=O)=O)ccc4s3)c2)s1` [Example 29, N-(3-chloro-5-(2-(5-methoxythiophen-2-yl)propan-2-yl)phenyl)-5-(2-(methylsulfonyl)propan-2-yl)benzo[b]thiophene-2-carboxamide], the IC50 in the experiment with STAT1 was more than 50 µM; in the experiment with STAT3, 0.0041 µM.
The corresponding values for `COc1sccc1C(C)(C)c1cc(Cl)cc(NC(=O)c2cc3cc(C(C)(C)S(C)(=O)=O)ccc3s2)c1` [Example 30, N-(3-chloro-5-(2-(2-methoxythiophen-3-yl)propan-2-yl)phenyl)-5-(2-(methylsulfonyl)propan-2-yl)benzo[b]thiophene-2-carboxamide] are more than 50 µM and 0.0013 µM.
For `CC(C)(c1ccc(Cl)cc1)c1cc(Cl)cc(NC(=O)c2cc3ccc(C(C)(C)S(C)(=O)=O)cc3[nH]2)c1` [Example 35, N-(3-chloro-5-(2-(4-chlorophenyl)propan-2-yl)phenyl)-6-(2-(methylsulfonyl)propan-2-yl)-1H-indole-2-carboxamide], in that order: more than 50 µM and 0.1 µM.
For `CC(C)(c1ccc2cc(C(=O)Nc3cc(Cl)cc(Oc4ccc(Cl)cc4)c3)[nH]c2c1)S(C)(=O)=O` [Example 40, N-(3-chloro-5-(4-chlorophenoxy)phenyl)-6-(2-(methylsulfonyl)propan-2-yl)-1H-indole-2-carboxamide], in that order: more than 50 µM and 0.21 µM.
As to `CC(C)(c1cc2cc(C(=O)Nc3cc(Cl)cc(Oc4ccc(Cl)cc4)c3)sc2cn1)S(C)(=O)=O` [Example 50, N-(3-chloro-5-(4-chlorophenoxy)phenyl)-5-(2-(methylsulfonyl)propan-2-yl)thieno[2,3-c]pyridine-2-carboxamide], the IC50 in the experiment on STAT1 was more than 50 µM; in the experiment on STAT3, 0.078 µM.
For `CC(C)(c1ccc2sc(C(=O)Nc3cc(Oc4ccc(Cl)cc4)cc(N4CCC4)c3)cc2c1)S(C)(=O)=O` [Example 59, N-(3-(azetidin-1-yl)-5-(4-chlorophenoxy)phenyl)-5-(2-(methylsulfonyl)propan-2-yl)benzo[b]thiophene-2-carboxamide], in that order: more than 50 µM and 0.31 µM.
The corresponding values for `CC(C)(c1ccc2sc(C(=O)Nc3cc(Cl)cc(Oc4ccc(Cl)nc4)c3)cc2c1)S(C)(=O)=O` [Example 60, N-(3-chloro-5-((6-chloropyridin-3-yl)oxy)phenyl)-5-(2-(methylsulfonyl)propan-2-yl)benzo[b]thiophene-2-carboxamide] are more than 50 µM and 0.12 µM.

For the origin of these results see patent publication US10023591B2, “Heterocyclic derivatives and use thereof” (C&C RESEARCH LABORATORIES, priority 2014, dated 2018).
